# pIC50: −log10 of the molar value.
# Legend:
# [1] = Antioxidant potential, ABTS assay; conditions: compared to compound free blank
# Experimental: (§1) To evaluate the potential of allyl HTT and 4-MSOB HTT to act as antioxidants, ABTS and DPPH were used as model radicals and Trolox as reference antioxidants based on Shalaby and Shanab ([28]). In total, 1.5 mg of ABTS and 0.26 mg potassium peroxodisulfate were dissolved in 4 mL of pure water and incubated in the dark overnight at room temperature. Afterward, 36 mL of MeOH were added to obtain the fresh ABTS working solution. In the case of the DPPH assay, 1.1 mg of DPPH were dissolved in 4 mL of MeOH and incubated for 2 h in the dark at 4°C, followed by the addition of 36 mL of MeOH to obtain the fresh DPPH working solution. Standards of Trolox, allyl HTT, and 4-MSOB HTT were prepared in water/MeOH (90/10, v/v%) at concentrations in the range of 6.25–100 μM. To detect the antioxidant potential, 100 μL of standard or water/MeOH (90/10, v/v%) as control were added to 1,000 μL of ABTS or DPPH working solution, and the extinction was measured directly after mixing and after 6 min of incubation in the dark with a spectrometer (UviLine 9100, Schott Instruments, Mainz, Germany) at 734 nm in the case of ABTS assay and 515 nm in DPPH assay (each prepared as duplicate). The results are reported as mean ± SD of the reduction of the extinction compared to the control.
# [2] = Antioxidant potential, DPPH assay; conditions: compared to compound free blank
# Experimental: as §1
# GSK-3α = system: GSK-3α; parameters: method as in PMID 31553649; conditions: read-out: IC50 (50% inhibition) to inhibit isoform GSK-3α; cited from earlier work
# GSK-3β = system: GSK-3β; parameters: method as in PMID 31553649; conditions: read-out: IC50 (50% inhibition) to inhibit GSK-3β; cited from earlier work
# [3] = parameters: method as in doi:10.1002/14356007.a09_001; conditions: cited from earlier work
# HepG2 = system: HepG2; parameters: method as in PMID 14578469; conditions: HepG2, 72 h of incubation time; read-out: IC50 (50% inhibition of cell growth); cited from earlier work
# [4] = parameters: method as in PMID 8000299, PMID 9865427; conditions: 10–12 h urine after consumption of horseradish or a mustard paste; cited from earlier work
# [5] = system: NAD(P)H dehydrogenase quinone 1 (NQO1); test: NQO1 activity in HepG2 cells; type: cell-based, human; conditions: 2 μM, 24 h, negative control 145 ± 8
# Experimental: (§2) The effect of allyl HTT or 4-MSOB HTT on NAD(P)H dehydrogenase quinone 1 (NQO1) activity was tested for HepG2 cells and HCT116 pTRAF cells. HCT116 pTRAF is a cell line that was transfected with the pTRAF^Nrf2/HIF/NFκB [Johansson et al. ([29])], as described by Kipp et al. ([30]). HCT116 pTRAF cells were cultivated in McCoy's 5A medium + 1% penicillin/streptomycin + 10% FBS + 1% GlutaMAX + 0.2 mg/mL hygromycin B. HepG2 cells in RPMI medium were seeded in a 6-well-plate (sterile, Sarsted, Nümbrecht, Germany) with a density of 350,000 cells/well, and HCT116 pTRAF cells in culture medium without hygromycin B with a density of 100,000 cells/well. After 48 h of incubation under cell culture conditions, the medium was exchanged with the fresh medium as a negative control and a medium with concentrations of 1 μM and 100 μM of allyl HTT or 4-MSOB HTT. Medium containing 2 μM auranofin was used as a positive control. After 24 h of incubation under cell culture conditions, NQO1 activity was analyzed according to Müller et al. ([31]), and the results were reported as mean ± SD. Additionally, the t-test for independent samples per variable was performed to test if concentration-dependent differences exist.
# [6] = system: NAD(P)H dehydrogenase quinone 1 (NQO1); test: NQO1 activity in HCT116 pTRAF cells; type: cell-based; conditions: 2 μM, 24 h, negative control 51 ± 5
# Experimental: as §2
# [7] = system: cultured hepatocytes from human liver transplants; conditions: range of 10 μM and 50 μM; cited from earlier work
# endothelial cells = conditions: cited from earlier work
# [8] = system: Nrf2 target gene expression in alveolar macrophages and bronchial epithelial cells; conditions: intervention with 150 μM; cited from earlier work
# [9] = cited from earlier work
compound,measurement,setting,value
"Cc1c(C)c2c(c(C)c1O)CCC(C)(C(=O)O)O2 (racemic) [Trolox, (±)-6-hydroxy-2,5,7,8-tetramethylchromane-2-carboxylic acid, reference compound]",Relative signal reduction of the extinction value of the radical ABTS,[1]; 6.25 µM,1.3 ± 0.4%
same,Relative signal reduction of the extinction value of the radical ABTS,[1]; 12.5 µM,1.9 ± 0.4%
same,Relative signal reduction of the extinction value of the radical ABTS,[1]; 25 µM,9.3 ± 0.5%
same,Relative signal reduction of the extinction value of the radical ABTS,[1]; 50 µM,16.5 ± 0.4%
same,Relative signal reduction of the extinction value of the radical ABTS,[1]; 100 µM,31.2 ± 0.4%
same,Relative signal reduction of the extinction value of the radical DPPH,[2]; 6.25 µM,0.8 ± 0.3%
same,Relative signal reduction of the extinction value of the radical DPPH,[2]; 12.5 µM,2.8 ± 0.3%
same,Relative signal reduction of the extinction value of the radical DPPH,[2]; 25 µM,3.5 ± 0.4%
same,Relative signal reduction of the extinction value of the radical DPPH,[2]; 50 µM,8.8 ± 0.6%
same,Relative signal reduction of the extinction value of the radical DPPH,[2]; 100 µM,17.5 ± 1.5%
OC1(c2ccccc2)CSC(=S)N1Cc1ccncc1 (stereo not shown) [COB-187],pIC50,GSK-3α,7.66
same,pIC50,GSK-3β,7.96
CN1CCSC1=S [N-methyl-2-thiazolidinethione],toxicity,[3],low toxicity
"C=CCN=C=S [allyl ITC, allyl isothiocyanate]",pIC50,HepG2,4.44
same,recovery of formed allyl ITC metabolites in urine,[4],42–54%
"CC(=O)OC[C@H]1O[C@@H]([S-])[C@H](OC(C)=O)[C@@H](OC(C)=O)[C@@H]1OC(C)=O.CCP(CC)CC.[Au+] [auranofin, 1-thio-β-D-glucopyranosatotriethyl phosphine gold-2,3,4,6-tetraacetate]",NQO1 activity,[5],153 ± 4 mU/mg protein
same,NQO1 activity,[6],114 ± 7 mU/mg protein
C[S+]([O-])CCCCN=C=S (stereo not shown) [sulforaphane],cytotoxicity,[7],no significant cytotoxicity
same,pIC50,HepG2,4.89
same,concentrations inducing apoptosis and cytotoxicity,endothelial cells,20 to 40 µM
same,stimulation in Nrf2 target gene expression,[8],no stimulation
same,bioavailability,[9],approximately 40%
